According to PubChem BioAssay AID328 (DTP/NCI, 2004):
Values joined by “and” are separate entries in the source; they are usually repeats but may differ in a detail not shown here. Equal entries are not always repeated. Inconclusive results and toxic doses are left out.

System: BDF1 mice, P388 leukemia ip, median survival T/C
Assay: NCI In Vivo Anticancer Drug Screen. Data for tumor model P388 Leukemia (intraperitoneal) in B6D2F1 (BDF1) mice
Settings: endpoint: median survival time, higher = longer survival
Procedure, shortened: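 In tumour-bearing mice, survival after compound treatment is set against the vehicle group and given as a quotient.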

[1] = dose: 50.0 mg/kg/injection, schedule: Q04DX003 (ip), vehicle: saline with Tween-80
[2] = dose: 100.0 mg/kg/injection, schedule: Q01DX009 (ip), vehicle: saline
[3] = dose: 100.0 mg/kg/injection, schedule: Q01DX009 (ip), vehicle: Klucel (hydroxypropylcellulose) (HPC)
[4] = dose: 200.0 mg/kg/injection, schedule: Q04DX003 (ip), vehicle: saline with Tween-80
[5] = dose: 50.0 mg/kg/injection, schedule: Q01DX009 (ip), vehicle: saline with Tween-80

SMILES: CCOC(=O)c1c[nH]c2ccc(N(CCCl)CCCl)cc12
- T/C (dose: 0.29 mg/kg/injection, schedule: Q01DX009 (ip), vehicle: saline with Tween-80): 101 % of control
- T/C (dose: 0.44 mg/kg/injection, schedule: Q01DX009 (ip), vehicle: saline with Tween-80): 101 % of control
- T/C (dose: 0.88 mg/kg/injection, schedule: Q01DX009 (ip), vehicle: saline with Tween-80): 152 % of control
- T/C (dose: 0.88 mg/kg/injection, schedule: Q04DX003 (ip), vehicle: saline with Tween-80): 118 % of control
- T/C (dose: 1.32 mg/kg/injection, schedule: Q04DX003 (ip), vehicle: saline with Tween-80): 122 % of control
- T/C (dose: 1.33 mg/kg/injection, schedule: Q01DX009 (ip), vehicle: saline with Tween-80): 158 % of control
- T/C (dose: 2.0 mg/kg/injection, schedule: Q01DX009 (ip), vehicle: saline with Tween-80): 177 % of control
- T/C (dose: 2.66 mg/kg/injection, schedule: Q01DX009 (ip), vehicle: saline with Tween-80): 164 % of control
- T/C (dose: 3.0 mg/kg/injection, schedule: Q01DX009 (ip), vehicle: saline with Tween-80): 186 % of control
- T/C (dose: 4.0 mg/kg/injection, schedule: Q01DX009 (ip), vehicle: saline with Tween-80): 176 % of control
- T/C (dose: 5.0 mg/kg/injection, schedule: Q04DX003 (ip), vehicle: saline with Tween-80): 158 % of control
- T/C (dose: 6.0 mg/kg/injection, schedule: Q01DX009 (ip), vehicle: saline with Tween-80): 191 % of control
- T/C (dose: 7.5 mg/kg/injection, schedule: Q04DX003 (ip), vehicle: saline with Tween-80): 166 % of control
- T/C (dose: 9.0 mg/kg/injection, schedule: Q01DX009 (ip), vehicle: saline with Tween-80): 252 % of control
- T/C (dose: 12.5 mg/kg/injection, schedule: Q04DX003 (ip), vehicle: saline with Tween-80): 190 % of control
- T/C (dose: 25.0 mg/kg/injection, schedule: Q04DX003 (ip), vehicle: saline with Tween-80): 177 % of control
- T/C [1]: 218 % of control

SMILES: CC(C)Oc1ccc2c(c1)Sc1ccc(Cl)cc1N2
- T/C (dose: 100.0 mg/kg/injection, schedule: Q01DX009 (ip), vehicle: saline with Tween-80): 104 % of control
- T/C (dose: 200.0 mg/kg/injection, schedule: Q01DX009 (ip), vehicle: saline with Tween-80): 104 % of control
- T/C (dose: 400.0 mg/kg/injection, schedule: Q01DX009 (ip), vehicle: saline with Tween-80): 104 % of control

SMILES: NCCCOc1ccc([N+](=O)[O-])cc1Cl
- T/C (dose: 25.0 mg/kg/injection, schedule: Q01DX009 (ip), vehicle: saline): 105 % of control
- T/C (dose: 50.0 mg/kg/injection, schedule: Q01DX009 (ip), vehicle: saline): 105 % of control
- T/C [2]: 104 % of control

SMILES: COc1ccc(OC)c(NC(=O)Sc2c(Cl)c(Cl)nc(Cl)c2Cl)c1
- T/C (dose: 25.0 mg/kg/injection, schedule: Q01DX009 (ip), vehicle: Klucel (hydroxypropylcellulose) (HPC)): 123 % of control
- T/C [3]: 124 % of control
- T/C (dose: 200.0 mg/kg/injection, schedule: Q01DX009 (ip), vehicle: Klucel (hydroxypropylcellulose) (HPC)): 123 % of control

SMILES: CNc1nc2ncn(C)c2c(=O)[nH]1
- T/C [2]: 100 % of control
- T/C (dose: 200.0 mg/kg/injection, schedule: Q01DX009 (ip), vehicle: saline): 109 % of control
- T/C (dose: 400.0 mg/kg/injection, schedule: Q01DX009 (ip), vehicle: saline): 95 % of control

SMILES: CCCCN(C)N=Nc1ccc(CCC(=O)OCC)cc1
- T/C (dose: 78.0 mg/kg/injection, schedule: Q04DX003 (ip), vehicle: saline with Tween-80): 100 % of control
- T/C (dose: 118.0 mg/kg/injection, schedule: Q04DX003 (ip), vehicle: saline with Tween-80): 118 % of control
- T/C (dose: 177.0 mg/kg/injection, schedule: Q04DX003 (ip), vehicle: saline with Tween-80): 104 % of control
- T/C [4]: 118 % of control
- T/C (dose: 400.0 mg/kg/injection, schedule: Q04DX003 (ip), vehicle: saline with Tween-80): 150 % of control and 168 % of control
- T/C (dose: 600.0 mg/kg/injection, schedule: Q04DX003 (ip), vehicle: saline with Tween-80): 184 % of control

SMILES: O=[N+]([O-])c1ccc(Sc2ccc(Cl)cc2)c2nonc12
- T/C [5]: 92 % of control

SMILES: CC(=O)OC1CC2(O)C(CCC3(C)C(c4ccc(=O)oc4)CCC32O)C2(C)C1=CC(O)C1OC12 (configuration not stated)
- T/C (dose: 0.05 mg/kg/injection, schedule: Q01DX010 (ip), vehicle: carboxymethylcellulose (CMC)): 105 % of control
- T/C (dose: 0.1 mg/kg/injection, schedule: Q01DX010 (ip), vehicle: carboxymethylcellulose (CMC)): 95 % of control
- T/C (dose: 0.2 mg/kg/injection, schedule: Q01DX010 (ip), vehicle: carboxymethylcellulose (CMC)): 105 % of control
- T/C (dose: 0.5 mg/kg/injection, schedule: Q01DX010 (ip), vehicle: carboxymethylcellulose (CMC)): 90 % of control

SMILES: O=S1(=O)C=CCCC=C1
- T/C (dose: 50.0 mg/kg/injection, schedule: Q01DX009 (ip), vehicle: Klucel (hydroxypropylcellulose) (HPC)): 100 % of control
- T/C [3]: 89 % of control

SMILES: COc1cc(C=Nc2cccc(Cl)c2)ccc1N(CCCl)CCCl
- T/C (dose: 8.0 mg/kg/injection, schedule: Q04DX003 (ip), vehicle: saline with Tween-80): 195 % of control
- T/C (dose: 12.5 mg/kg/injection, schedule: Q01DX009 (ip), vehicle: saline with Tween-80): 187 % of control
- T/C (dose: 16.0 mg/kg/injection, schedule: Q04DX003 (ip), vehicle: saline with Tween-80): 187 % of control
- T/C (dose: 25.0 mg/kg/injection, schedule: Q01DX009 (ip), vehicle: saline with Tween-80): 187 % of control
- T/C (dose: 33.0 mg/kg/injection, schedule: Q04DX003 (ip), vehicle: saline with Tween-80): 207 % of control
- T/C [5]: 95 % of control
- T/C [1]: 230 % of control

SMILES: O=C(CCc1ccc(O)cc1)c1c(O)cc(O)cc1OC1OC(CO)C(O)C(O)C1O (configuration not stated)
- T/C (dose: 115.0 mg/kg/injection, schedule: Q01DX010 (ip), vehicle: saline): 100 % of control
- T/C (dose: 175.0 mg/kg/injection, schedule: Q01DX010 (ip), vehicle: saline): 109 % of control
- T/C (dose: 265.0 mg/kg/injection, schedule: Q01DX010 (ip), vehicle: saline): 100 % of control
- T/C (dose: 400.0 mg/kg/injection, schedule: Q01DX010 (ip), vehicle: saline): 95 % of control

SMILES: C=C1CCN2CCCC12 (configuration not stated)
- T/C (dose: 20.0 mg/kg/injection, schedule: Q01DX010 (ip), vehicle: carboxymethylcellulose (CMC)): 110 % of control
- T/C (dose: 40.0 mg/kg/injection, schedule: Q01DX010 (ip), vehicle: carboxymethylcellulose (CMC)): 100 % of control
- T/C (dose: 80.0 mg/kg/injection, schedule: Q01DX010 (ip), vehicle: carboxymethylcellulose (CMC)): 110 % of control

SMILES: CCOC(=O)c1ccc(N(CCOS(C)(=O)=O)CCOS(C)(=O)=O)cc1
- T/C (dose: 66.0 mg/kg/injection, schedule: Q01DX008 (ip), vehicle: saline with Tween-80): 200 % of control
- T/C (dose: 100.0 mg/kg/injection, schedule: Q01DX008 (ip), vehicle: saline with Tween-80): 222 % of control
- T/C (dose: 132.0 mg/kg/injection, schedule: Q04DX003 (ip), vehicle: saline with Tween-80): 177 % of control
- T/C (dose: 150.0 mg/kg/injection, schedule: Q01DX008 (ip), vehicle: saline with Tween-80): 272 % of control
- T/C [4]: 190 % of control
- T/C (dose: 300.0 mg/kg/injection, schedule: Q04DX003 (ip), vehicle: saline with Tween-80): 195 % of control

SMILES: CC(=O)O[C@]1(C(C)=O)CC[C@H]2[C@@H]3C[C@H](C)C4=CC(=O)C=C[C@]4(C)[C@@]3(F)[C@@H](O)C[C@@]21C
- T/C (dose: 12.5 mg/kg/injection, schedule: Q01DX010 (sc), vehicle: steriod suspending solution): 100 % of control and 108 % of control
- T/C (dose: 25.0 mg/kg/injection, schedule: Q01DX010 (sc), vehicle: steriod suspending solution): 100 % of control and 112 % of control
- T/C (dose: 50.0 mg/kg/injection, schedule: Q01DX010 (sc), vehicle: steriod suspending solution): 95 % of control and 112 % of control
- T/C (dose: 100.0 mg/kg/injection, schedule: Q01DX010 (sc), vehicle: steriod suspending solution): 91 % of control and 104 % of control

SMILES: CC(=O)OC/C=C(C)/C=C/C=C(C)/C=C/C1=C(C)CCCC1(C)C
- T/C (dose: 100.0 mg/kg/injection, schedule: Q01DX010 (ip), vehicle: acetone): 107 % of control
- T/C (dose: 200.0 mg/kg/injection, schedule: Q01DX010 (ip), vehicle: acetone): 89 % of control
- T/C (dose: 800.0 mg/kg/injection, schedule: Q01DX010 (ip), vehicle: acetone): 121 % of control

SMILES: CC(=O)CC(c1ccc2c(c1)OCO2)c1c(O)c2ccccc2oc1=O (configuration not stated)
- T/C (dose: 0.39 mg/kg/injection, schedule: Q01DX009 (ip), vehicle: saline): 88 % of control
- T/C (dose: 0.78 mg/kg/injection, schedule: Q01DX009 (ip), vehicle: saline): 106 % of control
- T/C (dose: 0.78 mg/kg/injection, schedule: Q04DX003 (ip), vehicle: saline): 89 % of control
- T/C (dose: 1.56 mg/kg/injection, schedule: Q01DX009 (ip), vehicle: saline): 106 % of control
- T/C (dose: 1.56 mg/kg/injection, schedule: Q04DX003 (ip), vehicle: saline): 98 % of control
- T/C (dose: 3.12 mg/kg/injection, schedule: Q04DX003 (ip), vehicle: saline): 89 % of control
- T/C (dose: 6.25 mg/kg/injection, schedule: Q04DX003 (ip), vehicle: saline): 89 % of control
- T/C (dose: 12.5 mg/kg/injection, schedule: Q04DX003 (ip), vehicle: saline): 102 % of control
